Laboratory results published in US20250213614A1, “Modified RELA Protein for Inducing Interferon Expression and Engineered Immune Cells with Improved Interferon Expression” (Institut Curie, priority 2022, published 2025).

What was measured:
Assay type in all cases: cell-based, human
[1] = tested on: STING, TBK1, IRF3, RELA, IRF7; assay: Western blot of key signaling proteins involved in STING signaling; settings: for cGAMP-mediated STING signaling: CD4+ T cells treated with TSA or 5AZA, FIG. 3E
Method: 0.5 million cells were lysed for 30 minutes on ice in 50 μl RIPA buffer (50 mM Tris HCl, 150 mM NaCl, 0.1% SDS, 0.5% DOC, 1% NP-40) with Protease inhibitor (Roche #1187358001). To evaluate, phospho-proteins 50 mM NaF and 1 mM sodium orthovanadate were added to the lysis buffer. Protein lysates were cleared by centrifugation at 12,000 g for 10 to 12 minutes at 4° C. 10 μl of 6× Laemmli buffer (fisher scientific #J61337) was added to 50 μl protein lysates and samples were boiled at 95° C. for 15 minutes. Protein samples were resolved on 4%-20% Biorad precast SDS-PAGE gels (#5671125) and transferred onto PVDF membranes (BioRad #1704157). Membranes were blocked in 5% non-fat dry milk in PBS 0.1% tween or in TBS 5% BSA 0.1% Tween to detect phosphorylated proteins. Primary antibodies were used at 1:1000:phospho-STING (clone-D7C3S), STING (clone-D2P2F), serine 172 phospho-TBK1 (clone-D52C2), TBK1 (clone-D11B4), serine 396 phospho IRF3 (clone-D6O1M), IRF3 (clone-D83B9), RELA (clone-C22B4), IRF7 (clone-12G9A36), cGAS (clone-D1 D3G), Actin (clone-C4), Sendai viral proteins (Biozol #MBL-PD029). Secondary anti-rabbit or anti-mouse antibody were used at 1:10,000 (santa cruz #sc-2357, #sc-516102). ECL signal (Biorad #1705061 and #1705062) was recorded on a ChemiDoc Touch Biorad Imager. Data was analyzed and quantified with Image Lab software (Biorad). In figures, dotted lines indicate reordering of lanes from a single original membrane for visualization purpose.

CD4+ T cells = assay: IFN-I/III quantification (LEGENDplex) in CD4+ T cells, baseline or after STING stimulation; settings: for IFNλ1 response to cGAMP under epigenetic inhibitor: CD4+ T cells, TSA 100 nM or 5AZA 2 μM, FIG. 3D; for IFN-I/III: over-expression of cGAS or NLS-cGAS in CD4+ T cells, data not shown
Method: (§1) Plasmapheresis blood pockets were obtained from healthy adult volunteers after informed consent from the EFS (Establishment of French blood collection). Peripheral blood mononuclear cells (PBMCs) were isolated using Ficoll-Paque Plus (GE-17144003) and left overnight at 4° C. in RPMI (Thermo fischer #61870-010) with 10% heat-decomplemented fetal bovine serum (FBS, Eurobio #CVFSVFO0-01). CD14+ cells were enriched by positive selection (Miltenyi #130-050-201), the CD14 negative fraction was subsequently used to isolate total CD4+ T cells by negative selection (Stem Cell #17952). CD14+ cells were cultured in RPMI containing 10% FBS, 5% Penicillin-Streptomycin (PS, Thermo Fisher #10378-016), 50 μg/ml Gentamicin (Thermo Fisher #15750-045) and 10 mM HEPES (Thermo Fisher #15630-056). CD14+ cells were differentiated ex vivo into MDDC by supplementing the culture media with 50 ng/ml IL-4 (Miltenyi #130-093-922) and 10 ng/ml GM-CSF (Miltenyi #130-093-867). MDDC were used for experiments 3 or 4 days following the start of the culture. CD14+ cells were differentiated ex vivo into macrophages by adding 50 ng/ml MCSF (Miltenyi #130-096-492) to the culture media containing RPMI with 1% PS, 5% FBS and 5% human serum (Sigma #H4522). MDM were used 7 days following culture. Freshly isolated CD4+ T cells were cultured in X-VIVO 15 (Lonza #BE02-060F) and activated using anti-CD3 and anti-CD28 Dynabeads (fisher scientific #10548353) at the ratio of 1:5 (bead:cell). 100 U/ml human IL-2 (Immunotools #11340027) was added to cultures 2 days following TCR stimulation and media with IL-2 was replenished every 48 hours. To assess proliferation, freshly isolated CD4+ T cells were stained with cell proliferation dye (thermo fischer #65-0840-85) prior to TCR stimulation.
(§2) CD14+ cells were plated at 1 million cells/ml and transduced with equal volumes of freshly harvested SIV-VLPs and pTRIP-SFFV vectors in the presence of 8 μg/ml protamine (Sigma #P4020). CD4+ T cells were transduced with lentivectors 24 hours post-TCR stimulation in 100 μl of cells (0.2 million cells) and 100 μl of freshly harvested lentivirus in the presence of 8 μg/ml protamine. T cells were spinoculated at 1200 g for 2 hours at 25° C. 0.5 million THP-1 cells in 500 μl media (RPMI 10% FBS 1% PS) were transduced with 500 μl freshly harvested lentivirus in the presence of 8 μg/ml protamine. 1 μg/ml Puromycin (Invivogen #ant-pr-1) was added 2 days post-transduction when cells were transduced with pLKO.1-puro plasmid.
For stimulation of STING by extracellular ligands, 2.5 μg of ADUS100 (invivogen #tlrl-nacda2r-01) or 2′3′-cGAMP (cGAMP, invivogen #tlrl-nacga23-02) was added to 100,000 cells in 100 μl media either on freshly isolated primary cells or 3-4 days post differentiation for MDDC and 3 days post-TCR stimulation for CD4+ T cells. Cells and supernatant were harvested 18-24 hours post stimulation. For delivery of STING ligands after permeabilization, T cells were used 3 or 4 days post TCR stimulation and MDDC were used 3-4 days following differentiation. 150,000 cells were plated in round bottom 96-well plate. Media was removed by centrifugation and 20 μl 2× permeabilization buffer (100 mM HEPES, 200 mM KCl, 6 mM MgCl2, 0.2 mM DTT, 170 mM Sucrose, 2 mM ATP, 2 mM GTP, 0.4% bovine serum albumin (BSA), 20 μg/ml digitonin) and 20 μl cGAMP (12 μg/ml) was added to cells. 18 to 20 hours following stimulation supernatants and cells were harvested. Cells were stained with a fixable viability dye (Invitrogen #65-0865-14) and acquired on a FACSVerse (BD). […]
Where indicated, cells were treated with 5-Azacytidine (5AZA, Sigma #A2385) 48 hours prior to cGAMP stimulation. Fresh 5AZA was added daily to cells, and media was replenished with 5AZA following cGAMP stimulation. 100 nM Trichostatin A (TSA) (sigma #T1952) was added to cells following cGAMP stimulation and left overnight. […]

MDDC = assay: IFN-I/III quantification (LEGENDplex) in MDDC after STING stimulation
Method: as §1, §2
For stimulation of STING by extracellular ligands, 2.5 μg of ADUS100 (invivogen #tlrl-nacda2r-01) or 2′3′-cGAMP (cGAMP, invivogen #tlrl-nacga23-02) was added to 100,000 cells in 100 μl media either on freshly isolated primary cells or 3-4 days post differentiation for MDDC and 3 days post-TCR stimulation for CD4+ T cells. Cells and supernatant were harvested 18-24 hours post stimulation. For delivery of STING ligands after permeabilization, T cells were used 3 or 4 days post TCR stimulation and MDDC were used 3-4 days following differentiation. 150,000 cells were plated in round bottom 96-well plate. Media was removed by centrifugation and 20 μl 2× permeabilization buffer (100 mM HEPES, 200 mM KCl, 6 mM MgCl2, 0.2 mM DTT, 170 mM Sucrose, 2 mM ATP, 2 mM GTP, 0.4% bovine serum albumin (BSA), 20 μg/ml digitonin) and 20 μl cGAMP (12 μg/ml) was added to cells. 18 to 20 hours following stimulation supernatants and cells were harvested. Cells were stained with a fixable viability dye (Invitrogen #65-0865-14) and acquired on a FACSVerse (BD).
For experiments with conditioned media, CD4+ T cell- and MDDC-conditioned media refer to […] filtered conditioned media from cultures of activated CD4+ T cell and MDDC, respectively. CD4+ T cells were pretreated with 100 μl of MDDC-conditioned media or of fresh MDDC culture media, 24 hours prior to cGAMP stimulation. […]

[2] = TCR-activated CD4+ T cells, ADU-S100 2.5 μg, FIG. 1D

Molecule: CC(/C=C/C(=O)NO)=C\[C@@H](C)C(=O)c1ccc(N(C)C)cc1 [TSA, Trichostatin A, reference compound]
- cGAMP-mediated STING signaling [1]: intact
- IFN expression at baseline with RELA K5R and after cGAMP stimulation (CD4+ T cells; CD4+ T cells treated with TSA): inhibits IFN expression
- IFNλ1 response to cGAMP under epigenetic inhibitor (CD4+ T cells): reduced the already low IFNλ1 production

Molecule: shRNA 1: pLKO.1-puro-IRF7sh1, shRNA against IRF7, CCCGAGCTGCACGTTCCTATA [reference compound]
- IRF7 expression (knock-down) ([1]; CD4+ T cells treated with IFNα2a 1000 U/ml, FIG. 4B): more potent
- induction of IFNα2 by cGAMP stimulation (CD4+ T cells; CD4+ T cells expressing only RELA K5R, IRF7 knock-down, FIG. 4C): abolished

Molecule: Nc1ncn([C@@H]2O[C@H](CO)[C@@H](O)[C@H]2O)c(=O)n1 [5AZA, 5-Azacytidine, reference compound]
- cGAMP-mediated STING signaling [1]: did not occur through detectable increase
- IFNλ1 response to cGAMP under epigenetic inhibitor (CD4+ T cells): enhanced the IFNλ1 response to cGAMP

Molecule: Nc1ncnc2c1ncn2[C@@H]1O[C@@H]2COP(=O)([S-])O[C@@H]3[C@H](O)[C@@H](COP([O-])(=S)O[C@H]2[C@H]1O)O[C@H]3n1cnc2c(N)ncnc21.[Na+].[Na+] (stereo partly drawn) [ADU-S100, reference compound]
- IFN-I induction (CD4+ T cells; [2]): no detectable IFN-I
- IFN-III induction (CD4+ T cells; [2]): induced IFN-III
- IFN response to STING ligands (CD4+ T cells; resting blood CD4+ T cells, soluble ligand 1 μg or 2.5 μg, FIG. 1B): undetectable
- IFNλ1 produced by donor-matched MDDC, more than TCR-activated CD4+ T cells (MDDC; ADU-S100 2.5 μg, FIG. 1D): 10 fold
- IFNβ production (MDDC; donor-matched MDDC, ADU-S100 2.5 μg, FIG. 1D): high levels

Molecule: IFNγ: recombinant type II interferon, 10 ng/ml
- IFN-I/III response to cGAMP (MDDC; MDDC treated with recombinant IFNγ 10 ng/ml 24 hours before cGAMP, FIG. 1H): sufficient to enhance

B1: RELA K310R: RELA with lysine 310 substituted for arginine, expressed from lentivector (protein)
chain: MDELFPLIFPAEPAQASGPYVEIIEQPKQRGMRFRYKCEGRSAGSIPGERSTDTTKTHPTIKINGYTGPGTVRISLVTKDPPHRPHPHELVGKDCRDGFYEAELCPDRCIHSFQNLGIQCVRRRDLEQAISQRIQTNNNPFQVPIEEQRGDYDLNAVRLCFQVTVRDPSGRPLRLPPVLSHPIFDNRAPNTAELKICRVNRNSGSCLGGDEIFLLCDKVQKEDIEVYFTGPGWEARGSFSQADVHRQVAIVFRTPPYADPSLQAPVRVSMQLRRPSDRELSEPMEFQYLPDTDDRHRIEEKRKRTYETFRSIMRRSPFSGPTDPRPPPRRIAVPSRSSASVPKPAPQPYPFTSSLSTINYDEFPTMVFPSGQISQASALAPAPPQVLPQAPAPAPAPAMVSALAQAPAPVPVLAPGPPQAVAPPAPKPTQAGEGTLSEALLQLQFDDEDLGALLGNSTDPAVFTDLASVDNSEFQQLLNQGIPVAPHTTEPMLMEYPEAITRLVTGAQRPPDPAPAPLGAPGLPNGLLSGDEDFSSIADMDFSALLSQISS
- IFNλ1 after cGAMP stimulation (CD4+ T cells; lentivector overexpression in CD4+ T cells, FIG. 2B, 2D, 2F): augmented in the presence of cGAMP
- IFNα2 in response to cGAMP (CD4+ T cells; lentivector overexpression in CD4+ T cells, FIG. 2D, 2F): detected
- baseline IFNλ1 expression (CD4+ T cells; lentivector overexpression in CD4+ T cells, no cGAMP, FIG. 2D, 2F): increased baseline IFNλ1 similar to RELA K5R

B2: cGAS: pTRIP-SFFV-EGFP-FLAG-cGAS over-expression (protein, UniProt Q8N884 1-522, looked up)
Cyclic GMP-AMP synthase: MQPWHGKAMQRASEAGATAPKASARNARGAPMDPTESPAAPEAALPKAGKFGPARKSGSRQKKSAPDTQERPPVRATGARAKKAPQRAQDTQPSDATSAPGAEGLEPPAAREPALSRAGSCRQRGARCSTKPRPPPGPWDVPSPGLPVSAPILVRRDAAPGASKLRAVLEKLKLSRDDISTAAGMVKGVVDHLLLRLKCDSAFRGVGLLNTGSYYEHVKISAPNEFDVMFKLEVPRIQLEEYSNTRAYYFVKFKRNPKENPLSQFLEGEILSASKMLSKFRKIIKEEINDIKDTDVIMKRKRGGSPAVTLLISEKISVDITLALESKSSWPASTQEGLRIQNWLSAKVRKQLRLKPFYLVPKHAKEGNGFQEETWRLSFSHIEKEILNNHGKSKTCCENKEEKCCRKDCLKLMKYLLEQLKERFKDKKHLDKFSSYHVKTAFFHVCTQNPQDSQWDRKDLGLCFDNCVTYFLQCLRTEKLENYFIPEFNLFSSNLIDKRSKEFLTKQIEYERNNEFPVFDEF
modifications: EGFP, FLAG tag
notes: pTRIP-SFFV-EGFP-FLAG-cGAS over-expression
- IFN-I/III (CD4+ T cells): remained undetectable

B3: NLS-cGAS: pTRIP-SFFV-EGFP-NLS-FLAG-cGAS, nuclear localization signal cGAS over-expression (protein, UniProt Q8N884 1-522, looked up)
Cyclic GMP-AMP synthase: B2 Cyclic GMP-AMP synthase
modifications: EGFP, NLS, FLAG tag
notes: pTRIP-SFFV-EGFP-NLS-FLAG-cGAS, nuclear localization signal cGAS over-expression
- IFN-I/III (CD4+ T cells): remained undetectable
